Results as given in ChEMBL document CHEMBL1201862, “PubChem BioAssay data set” (2004).
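Results reflect a 48-hour exposure of cells in 96-well plates to compound at five concentrations. GI50: concentration for 50% inhibition of growth.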 Activity calls are given as the source filed them. No stated cut-off is given here; in the data, active = GI50 up to about 1.1 µM and inactive = higher.

Legend:
Assay in all cases: NCI-60 cell line screen, 48 h
786-0 = tested on: 786-0
ACHN = tested on: ACHN
DU-145 = tested on: DU-145
HCC 2998 = tested on: HCC 2998
HCT-116 = tested on: HCT-116
IGROV-1 = tested on: IGROV-1
K562 = tested on: K562
KM12 = tested on: KM12
MCF7 = tested on: MCF7
NCI-H226 = tested on: NCI-H226
OVCAR-4 = tested on: OVCAR-4
OVCAR-5 = tested on: OVCAR-5
RXF 393 = tested on: RXF 393
SF-295 = tested on: SF-295
SK-MEL-28 = tested on: SK-MEL-28
SNB-75 = tested on: SNB-75
SNB-78 = tested on: SNB-78
SW-620 = tested on: SW-620
TK-10 = tested on: TK-10
UO-31 = tested on: UO-31

| Compound | GI50 (786-0) | GI50 (ACHN) | GI50 (DU-145) | GI50 (HCC 2998) | GI50 (HCT-116) | GI50 (IGROV-1) | GI50 (K562) | GI50 (KM12) | GI50 (MCF7) | GI50 (NCI-H226) | GI50 (OVCAR-4) | GI50 (OVCAR-5) | GI50 (RXF 393) | GI50 (SF-295) | GI50 (SK-MEL-28) | GI50 (SNB-75) | GI50 (SNB-78) | GI50 (SW-620) | GI50 (TK-10) | GI50 (UO-31) |
| --- | --- | --- | --- | --- | --- | --- | --- | --- | --- | --- | --- | --- | --- | --- | --- | --- | --- | --- | --- | --- |
| CC(C)Cn1cnc2c(Sc3c([N+](=O)[O-])ncn3C)nc(N)nc21 | > 61 µM (inactive) | > 63.8 µM (inactive) | 28.5 µM (inactive) | > 62.7 µM (inactive) | > 60.1 µM (inactive) | > 47.5 µM (inactive) | > 47.3 µM (inactive) | > 100 µM (inactive) | 27.6 µM (inactive) | > 100 µM (inactive) | 23.6 µM (inactive) | > 100 µM (inactive) | > 56.1 µM (inactive) | > 100 µM (inactive) | > 60.7 µM (inactive) | > 59.8 µM (inactive) | > 100 µM (inactive) | > 61.5 µM (inactive) | > 41.1 µM (inactive) | > 38 µM (inactive) |
| Cc1cccc(C)c1NC(=O)CCCC(=O)C(C#N)c1ccccc1 (stereo unspecified) | > 10 µM (inactive) | > 100 µM (inactive) |  | > 10 µM (inactive) | > 100 µM (inactive) | > 100 µM (inactive) | > 100 µM (inactive) | > 10 µM (inactive) |  | > 100 µM (inactive) | > 100 µM (inactive) | > 10 µM (inactive) | > 100 µM (inactive) | > 10 µM (inactive) | > 100 µM (inactive) | > 100 µM (inactive) | > 100 µM (inactive) | > 100 µM (inactive) |  | > 100 µM (inactive) |
| CC1=C(O)C(=O)C2C(=O)C1C1Cc3ccccc3C21 (stereo unspecified) | > 100 µM (inactive) | > 100 µM (inactive) |  | > 100 µM (inactive) |  | > 100 µM (inactive) | > 100 µM (inactive) | > 100 µM (inactive) |  | > 100 µM (inactive) | > 100 µM (inactive) | > 100 µM (inactive) | > 100 µM (inactive) | > 100 µM (inactive) | > 100 µM (inactive) | 60.5 µM (inactive) | > 100 µM (inactive) | > 100 µM (inactive) | > 100 µM (inactive) | > 100 µM (inactive) |
| Cc1cc(CS(=O)(=O)/C=C/c2ccccc2[N+](=O)[O-])c(CS(=O)(=O)/C=C/c2ccccc2[N+](=O)[O-])cc1C | 12.5 µM (inactive) | 34.4 µM (inactive) | 56.2 µM (inactive) | > 85.3 µM (inactive) | 37 µM (inactive) | 30.8 µM (inactive) | 35.3 µM (inactive) | 81.8 µM (inactive) | 8.13 µM (inactive) | 19 µM (inactive) | 7.98 µM (inactive) | > 57.1 µM (inactive) | 10.3 µM (inactive) | 16.9 µM (inactive) | 68.7 µM (inactive) | 5.27 µM (inactive) | 23 µM (inactive) | > 54.2 µM (inactive) | 35.4 µM (inactive) | > 82 µM (inactive) |
| CCN(CC)/C(=C\Cl)Nc1ccccn1.[O-][Cl+3]([O-])([O-])O | > 100 µM (inactive) | > 100 µM (inactive) |  | > 100 µM (inactive) | > 100 µM (inactive) | > 100 µM (inactive) | > 100 µM (inactive) | > 100 µM (inactive) |  | > 100 µM (inactive) | > 100 µM (inactive) | > 100 µM (inactive) | > 100 µM (inactive) | > 100 µM (inactive) | > 100 µM (inactive) | > 100 µM (inactive) | > 100 µM (inactive) | > 100 µM (inactive) | > 100 µM (inactive) | > 100 µM (inactive) |
| O=C1CC(c2ccccc2)NCN1 (stereo unspecified) | > 100 µM (inactive) | > 100 µM (inactive) |  | > 100 µM (inactive) | > 100 µM (inactive) | > 100 µM (inactive) | > 100 µM (inactive) | > 100 µM (inactive) |  | > 100 µM (inactive) | > 100 µM (inactive) | > 100 µM (inactive) | > 100 µM (inactive) | > 100 µM (inactive) | > 100 µM (inactive) | > 100 µM (inactive) | > 100 µM (inactive) | > 100 µM (inactive) | > 100 µM (inactive) | > 100 µM (inactive) |
| CC(=O)OCc1cc2c(s1)C(=O)c1sccc1C2=O | 0.619 µM (active) | 0.0881 µM (active) | 0.0336 µM (active) | 1.78 µM (inactive) | 1.74 µM (inactive) | 1.46 µM (inactive) | 0.277 µM (active) | 0.234 µM (active) | 0.208 µM (active) | 0.355 µM (active) | 0.191 µM (active) | 0.19 µM (active) | 0.157 µM (active) | 0.0541 µM (active) | < 0.0386 µM (active) | 0.057 µM (active) | 13.2 µM (inactive) | 0.104 µM (active) | 1.79 µM (inactive) | 0.178 µM (active) |
| O=C1C2CCN(CC2)C1CN1CCOCC1 (stereo unspecified) | 1.93 µM (inactive) | 2.01 µM (inactive) | 6.47 µM (inactive) | 15.7 µM (inactive) | 1.87 µM (inactive) | 19.3 µM (inactive) | 6.73 µM (inactive) | 16.6 µM (inactive) | 2.9 µM (inactive) | 13.6 µM (inactive) | 4.04 µM (inactive) | 5.53 µM (inactive) | 2.25 µM (inactive) | 19.4 µM (inactive) | 3.79 µM (inactive) | 17 µM (inactive) | 20.7 µM (inactive) | 1.72 µM (inactive) | 6.82 µM (inactive) | 3.84 µM (inactive) |
| COc1cc2c(c(OC)c1OC)-c1ccc(SC)c(=O)cc1C(CC(=O)Oc1ccc(F)cc1)C2 (stereo unspecified) | 0.0625 µM (active) | 0.18 µM (active) |  | 0.121 µM (active) | 0.0891 µM (active) | 0.605 µM (active) | 0.15 µM (active) | 0.158 µM (active) |  | 0.231 µM (active) | 0.741 µM (active) | 39.1 µM (inactive) | 0.0365 µM (active) | 0.0359 µM (active) | 0.48 µM (active) | 0.234 µM (active) | 0.142 µM (active) | 0.0918 µM (active) | 40.8 µM (inactive) | 0.817 µM (active) |
| COc1c(O)c2c3c(cc(C)cc3c1C(C)C)OC2 | > 100 µM (inactive) | > 100 µM (inactive) |  | > 100 µM (inactive) | > 100 µM (inactive) | > 100 µM (inactive) | > 100 µM (inactive) | > 100 µM (inactive) |  | > 100 µM (inactive) | > 100 µM (inactive) | > 100 µM (inactive) | > 100 µM (inactive) | > 100 µM (inactive) | > 100 µM (inactive) | > 100 µM (inactive) | > 100 µM (inactive) | > 100 µM (inactive) | > 100 µM (inactive) | > 100 µM (inactive) |
